Data reported in ChEMBL document CHEMBL4804286, “3-amino-4-(4-(4 (dimethylcarbamoyl) phenyl)-1,4-diazepan-1-yl) thieno [2,3-b] pyridine-2-carboxamide for use in cancer therapy and formulations comprising the same” (2020).
“And” between values parts separate entries of the source, which are not always exact repeats. Identical values can stand only once.

How the values were obtained:
Design in all cases: scale not given: the % may be the effect or the level left
[1] = biological target: Serine/threonine-protein kinase SIK1 (Homo sapiens) (UniProt P57059); experiment: Inhibition of human SIK assessed as percent of control at 2000 nM by KINOMEscan assay relative to control
[2] = biological target: Ribosomal protein S6 kinase alpha-5 (Homo sapiens) (UniProt O75582); experiment: Inhibition of human N-terminal RPS6KA5 kinase domain 1 assessed as percent of control at 2000 nM by KINOMEscan assay relative to control
[3] = biological target: Cyclin-dependent kinase 4/cyclin D1 (Homo sapiens) (UniProt P11802+P24385); experiment: Inhibition of human CDK4/cyclin D1 assessed as percent of control at 2000 nM by KINOMEscan assay relative to control; type: protein-complex assay
[4] = biological target: Vascular endothelial growth factor receptor 2 (Homo sapiens) (UniProt P35968); experiment: Inhibition of human VEGFR2 assessed as percent of control at 2000 nM by KINOMEscan assay relative to control
[5] = biological target: Cyclin-dependent kinase 14 (Homo sapiens) (UniProt O94921); experiment: Inhibition of human PFTK1 assessed as percent of control at 2000 nM by KINOMEscan assay relative to control
[6] = biological target: Cyclin-dependent kinase 2 (Homo sapiens) (UniProt P24941); experiment: Inhibition of human CDK2 assessed as percent of control at 2000 nM by KINOMEscan assay relative to control
[7] = biological target: Glycogen synthase kinase-3 alpha (Homo sapiens) (UniProt P49840); experiment: Inhibition of human GSK3A assessed as percent of control at 2000 nM by KINOMEscan assay relative to control; details: INHIBITOR
[8] = tested on: Tyrosine-protein kinase ABL1 (Homo sapiens), P00519 [F317I]; experiment: Inhibition of non-phosphorylated human ABL1 F317I mutant assessed as percent of control at 2000 nM by KINOMEscan assay relative to control
[9] = biological target: Dual specificity mitogen-activated protein kinase kinase 1 (Homo sapiens) (UniProt Q02750); experiment: Inhibition of human MEK1 assessed as percent of control at 2000 nM by KINOMEscan assay relative to control
[10] = biological target: Mitogen-activated protein kinase kinase kinase kinase 5 (Homo sapiens) (UniProt Q9Y4K4); experiment: Inhibition of human MAP4K5 assessed as percent of control at 2000 nM by KINOMEscan assay relative to control
[11] = biological target: Ribosomal protein S6 kinase beta-1 (Homo sapiens) (UniProt P23443); experiment: Inhibition of human S6K1 assessed as percent of control at 2000 nM by KINOMEscan assay relative to control
[12] = biological target: Mitogen-activated protein kinase kinase kinase 20 (Homo sapiens) (UniProt Q9NYL2); experiment: Inhibition of human ZAK assessed as percent of control at 2000 nM by KINOMEscan assay relative to control
[13] = biological target: Mitogen-activated protein kinase 14 (Homo sapiens) (UniProt Q16539); experiment: Inhibition of human p38-alpha assessed as percent of control at 2000 nM by KINOMEscan assay relative to control
[14] = biological target: Rho-associated protein kinase 1 (Homo sapiens) (UniProt Q13464); experiment: Inhibition of human ROCK1 assessed as percent of control at 2000 nM by KINOMEscan assay relative to control
[15] = tested on: Tyrosine-protein kinase ABL1 (Homo sapiens), P00519 [Q252H]; experiment: Inhibition of phosphorylated human ABL1 Q252H mutant assessed as percent of control at 2000 nM by KINOMEscan assay relative to control
[16] = biological target: Tyrosine-protein kinase Fer (Homo sapiens) (UniProt P16591); experiment: Inhibition of human FER assessed as percent of control at 2000 nM by KINOMEscan assay relative to control
[17] = biological target: 5'-AMP-activated protein kinase catalytic subunit alpha-2 (Homo sapiens) (UniProt P54646); experiment: Inhibition of human AMPK-alpha2 assessed as percent of control at 2000 nM by KINOMEscan assay relative to control
[18] = biological target: Proto-oncogene tyrosine-protein kinase receptor Ret (Homo sapiens) (UniProt P07949); experiment: Inhibition of human RET assessed as percent of control at 2000 nM by KINOMEscan assay relative to control
[19] = biological target: Serine/threonine-protein kinase 32A (Homo sapiens) (UniProt Q8WU08); experiment: Inhibition of human YANK1 assessed as percent of control at 2000 nM by KINOMEscan assay relative to control
[20] = biological target: Serine/threonine-protein kinase 35 (Homo sapiens) (UniProt Q8TDR2); experiment: Inhibition of human STK35 assessed as percent of control at 2000 nM by KINOMEscan assay relative to control
[21] = biological target: Mitogen-activated protein kinase 11 (Homo sapiens) (UniProt Q15759); experiment: Inhibition of human p38-beta assessed as percent of control at 2000 nM by KINOMEscan assay relative to control
[22] = biological target: Bone morphogenetic protein receptor type-1A (Homo sapiens) (UniProt P36894); experiment: Inhibition of human BMPR1A assessed as percent of control at 2000 nM by KINOMEscan assay relative to control
[23] = biological target: LIM domain kinase 2 (Homo sapiens) (UniProt P53671); experiment: Inhibition of human LIMK2 assessed as percent of control at 2000 nM by KINOMEscan assay relative to control
[24] = biological target: Interleukin-1 receptor-associated kinase 3 (Homo sapiens) (UniProt Q9Y616); experiment: Inhibition of human IRAK3 assessed as percent of control at 2000 nM by KINOMEscan assay relative to control
[25] = biological target: Insulin-like growth factor 1 receptor (Homo sapiens) (UniProt P08069); experiment: Inhibition of human IGF1R assessed as percent of control at 2000 nM by KINOMEscan assay relative to control
[26] = biological target: Mitogen-activated protein kinase kinase kinase kinase 4 (Homo sapiens) (UniProt O95819); experiment: Inhibition of human MAP4K4 assessed as percent of control at 2000 nM by KINOMEscan assay relative to control
[27] = biological target: Tyrosine-protein kinase ABL2 (Homo sapiens) (UniProt P42684); experiment: Inhibition of human ABL2 assessed as percent of control at 2000 nM by KINOMEscan assay relative to control
[28] = biological target: Serine/threonine-protein kinase WNK3 (Homo sapiens) (UniProt Q9BYP7); experiment: Inhibition of human WNK3 assessed as percent of control at 2000 nM by KINOMEscan assay relative to control
[29] = biological target: Cyclin-dependent kinase 15 (Homo sapiens) (UniProt Q96Q40); experiment: Inhibition of human PFTAIRE2 assessed as percent of control at 2000 nM by KINOMEscan assay relative to control
[30] = biological target: Homeodomain-interacting protein kinase 4 (Homo sapiens) (UniProt Q8NE63); experiment: Inhibition of human HIPK4 assessed as percent of control at 2000 nM by KINOMEscan assay relative to control
[31] = biological target: Serine/threonine-protein kinase 10 (Homo sapiens) (UniProt O94804); experiment: Inhibition of human LOK assessed as percent of control at 2000 nM by KINOMEscan assay relative to control

5'-AMP-activated protein kinase catalytic subunit alpha-2 (Homo sapiens), sequence (P54646 whole entry, looked up): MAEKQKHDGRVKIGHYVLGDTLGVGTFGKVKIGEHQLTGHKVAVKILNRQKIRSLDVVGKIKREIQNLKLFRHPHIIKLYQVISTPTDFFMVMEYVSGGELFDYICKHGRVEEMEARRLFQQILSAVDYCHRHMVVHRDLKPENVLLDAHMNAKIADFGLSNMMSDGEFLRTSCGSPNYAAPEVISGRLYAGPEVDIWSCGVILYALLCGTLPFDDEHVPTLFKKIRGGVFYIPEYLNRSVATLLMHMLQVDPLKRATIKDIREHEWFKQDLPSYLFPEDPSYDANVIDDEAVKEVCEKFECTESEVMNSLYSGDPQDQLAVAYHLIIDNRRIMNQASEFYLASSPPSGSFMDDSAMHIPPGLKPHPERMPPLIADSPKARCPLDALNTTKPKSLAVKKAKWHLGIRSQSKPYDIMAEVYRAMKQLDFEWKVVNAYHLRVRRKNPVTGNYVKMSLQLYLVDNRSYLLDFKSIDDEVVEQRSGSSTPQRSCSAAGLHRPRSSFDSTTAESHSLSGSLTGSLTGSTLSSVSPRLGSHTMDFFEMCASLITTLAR
Mitogen-activated protein kinase kinase kinase 20 (Homo sapiens), sequence (Q9NYL2 2-800 limits assumed): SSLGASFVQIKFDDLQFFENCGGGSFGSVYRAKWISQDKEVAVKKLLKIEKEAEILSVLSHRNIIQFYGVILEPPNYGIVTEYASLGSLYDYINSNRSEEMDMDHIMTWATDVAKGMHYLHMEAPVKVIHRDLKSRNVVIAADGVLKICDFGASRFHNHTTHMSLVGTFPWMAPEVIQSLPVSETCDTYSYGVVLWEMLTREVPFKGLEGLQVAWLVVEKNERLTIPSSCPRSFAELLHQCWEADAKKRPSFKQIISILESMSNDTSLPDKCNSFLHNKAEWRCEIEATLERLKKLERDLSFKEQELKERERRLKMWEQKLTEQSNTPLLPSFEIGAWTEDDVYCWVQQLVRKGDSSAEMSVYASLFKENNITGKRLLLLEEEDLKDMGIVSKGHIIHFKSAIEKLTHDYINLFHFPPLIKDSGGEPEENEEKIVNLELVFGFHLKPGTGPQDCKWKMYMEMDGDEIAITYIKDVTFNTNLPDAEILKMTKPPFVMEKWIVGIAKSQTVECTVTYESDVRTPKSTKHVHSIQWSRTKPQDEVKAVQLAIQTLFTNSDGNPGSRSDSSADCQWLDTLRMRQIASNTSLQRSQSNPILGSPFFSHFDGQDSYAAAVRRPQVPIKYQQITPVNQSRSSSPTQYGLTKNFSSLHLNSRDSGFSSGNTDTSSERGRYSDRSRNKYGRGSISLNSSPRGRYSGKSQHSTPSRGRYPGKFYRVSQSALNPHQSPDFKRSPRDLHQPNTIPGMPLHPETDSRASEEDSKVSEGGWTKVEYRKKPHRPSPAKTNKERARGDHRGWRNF
Mitogen-activated protein kinase kinase kinase kinase 5 (Homo sapiens), sequence (Q9Y4K4 whole entry, looked up): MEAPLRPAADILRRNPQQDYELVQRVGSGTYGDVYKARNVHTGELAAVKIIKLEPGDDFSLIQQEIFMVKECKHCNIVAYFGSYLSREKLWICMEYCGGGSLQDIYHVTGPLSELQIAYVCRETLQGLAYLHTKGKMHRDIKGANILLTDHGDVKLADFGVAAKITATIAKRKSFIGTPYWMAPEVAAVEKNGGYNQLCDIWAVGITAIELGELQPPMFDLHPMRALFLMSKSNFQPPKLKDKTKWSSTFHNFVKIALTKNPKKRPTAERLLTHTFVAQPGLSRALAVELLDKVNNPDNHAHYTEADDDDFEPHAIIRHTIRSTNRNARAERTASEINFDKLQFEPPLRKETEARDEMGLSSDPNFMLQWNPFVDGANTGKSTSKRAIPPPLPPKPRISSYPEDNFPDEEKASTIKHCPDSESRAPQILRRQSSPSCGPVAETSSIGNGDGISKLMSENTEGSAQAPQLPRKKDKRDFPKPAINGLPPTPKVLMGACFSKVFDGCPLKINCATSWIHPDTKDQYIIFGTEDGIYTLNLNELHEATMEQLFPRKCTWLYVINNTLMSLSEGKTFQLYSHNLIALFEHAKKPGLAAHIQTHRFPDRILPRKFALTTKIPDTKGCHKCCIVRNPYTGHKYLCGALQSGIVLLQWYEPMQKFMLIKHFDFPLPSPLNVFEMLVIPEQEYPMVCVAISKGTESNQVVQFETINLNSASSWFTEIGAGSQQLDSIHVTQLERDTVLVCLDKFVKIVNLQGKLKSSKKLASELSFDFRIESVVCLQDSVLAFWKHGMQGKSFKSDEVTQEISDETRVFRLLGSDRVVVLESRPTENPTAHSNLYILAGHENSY
Ribosomal protein S6 kinase alpha-5 (Homo sapiens), sequence (O75582 whole entry, looked up, the tested form may be a part): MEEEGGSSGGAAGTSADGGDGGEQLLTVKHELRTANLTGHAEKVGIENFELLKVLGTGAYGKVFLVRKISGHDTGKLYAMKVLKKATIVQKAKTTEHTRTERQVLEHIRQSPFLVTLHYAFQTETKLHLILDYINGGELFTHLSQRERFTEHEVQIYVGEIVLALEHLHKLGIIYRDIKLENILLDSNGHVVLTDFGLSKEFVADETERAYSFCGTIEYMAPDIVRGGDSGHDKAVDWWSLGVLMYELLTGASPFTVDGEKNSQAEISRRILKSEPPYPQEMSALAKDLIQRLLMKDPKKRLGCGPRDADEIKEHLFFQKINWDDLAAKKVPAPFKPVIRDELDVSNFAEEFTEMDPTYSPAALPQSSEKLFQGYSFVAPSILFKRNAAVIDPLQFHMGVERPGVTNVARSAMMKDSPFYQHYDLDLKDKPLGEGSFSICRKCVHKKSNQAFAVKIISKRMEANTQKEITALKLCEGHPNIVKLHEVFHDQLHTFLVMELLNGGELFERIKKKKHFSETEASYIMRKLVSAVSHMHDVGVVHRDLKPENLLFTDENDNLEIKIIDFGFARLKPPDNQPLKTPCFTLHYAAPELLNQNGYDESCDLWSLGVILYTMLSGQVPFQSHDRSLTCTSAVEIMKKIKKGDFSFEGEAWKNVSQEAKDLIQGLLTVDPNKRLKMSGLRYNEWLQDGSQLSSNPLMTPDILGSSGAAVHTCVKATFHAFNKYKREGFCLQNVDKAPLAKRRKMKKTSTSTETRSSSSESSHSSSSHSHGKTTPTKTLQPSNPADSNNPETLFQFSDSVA
Serine/threonine-protein kinase 32A (Homo sapiens), sequence (Q8WU08 whole entry): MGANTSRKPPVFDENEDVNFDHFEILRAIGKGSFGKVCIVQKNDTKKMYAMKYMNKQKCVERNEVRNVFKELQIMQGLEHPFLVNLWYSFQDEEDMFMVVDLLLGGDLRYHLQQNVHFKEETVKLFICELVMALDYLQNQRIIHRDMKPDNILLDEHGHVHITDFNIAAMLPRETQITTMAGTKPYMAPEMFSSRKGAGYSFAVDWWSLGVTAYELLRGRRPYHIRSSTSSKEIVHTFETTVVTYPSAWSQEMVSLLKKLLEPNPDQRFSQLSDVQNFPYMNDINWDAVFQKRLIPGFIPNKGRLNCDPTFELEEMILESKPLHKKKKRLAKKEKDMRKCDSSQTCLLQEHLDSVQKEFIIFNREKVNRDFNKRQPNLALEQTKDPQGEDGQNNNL
Mitogen-activated protein kinase kinase kinase kinase 4 (Homo sapiens), sequence (O95819 2-1239 limits assumed): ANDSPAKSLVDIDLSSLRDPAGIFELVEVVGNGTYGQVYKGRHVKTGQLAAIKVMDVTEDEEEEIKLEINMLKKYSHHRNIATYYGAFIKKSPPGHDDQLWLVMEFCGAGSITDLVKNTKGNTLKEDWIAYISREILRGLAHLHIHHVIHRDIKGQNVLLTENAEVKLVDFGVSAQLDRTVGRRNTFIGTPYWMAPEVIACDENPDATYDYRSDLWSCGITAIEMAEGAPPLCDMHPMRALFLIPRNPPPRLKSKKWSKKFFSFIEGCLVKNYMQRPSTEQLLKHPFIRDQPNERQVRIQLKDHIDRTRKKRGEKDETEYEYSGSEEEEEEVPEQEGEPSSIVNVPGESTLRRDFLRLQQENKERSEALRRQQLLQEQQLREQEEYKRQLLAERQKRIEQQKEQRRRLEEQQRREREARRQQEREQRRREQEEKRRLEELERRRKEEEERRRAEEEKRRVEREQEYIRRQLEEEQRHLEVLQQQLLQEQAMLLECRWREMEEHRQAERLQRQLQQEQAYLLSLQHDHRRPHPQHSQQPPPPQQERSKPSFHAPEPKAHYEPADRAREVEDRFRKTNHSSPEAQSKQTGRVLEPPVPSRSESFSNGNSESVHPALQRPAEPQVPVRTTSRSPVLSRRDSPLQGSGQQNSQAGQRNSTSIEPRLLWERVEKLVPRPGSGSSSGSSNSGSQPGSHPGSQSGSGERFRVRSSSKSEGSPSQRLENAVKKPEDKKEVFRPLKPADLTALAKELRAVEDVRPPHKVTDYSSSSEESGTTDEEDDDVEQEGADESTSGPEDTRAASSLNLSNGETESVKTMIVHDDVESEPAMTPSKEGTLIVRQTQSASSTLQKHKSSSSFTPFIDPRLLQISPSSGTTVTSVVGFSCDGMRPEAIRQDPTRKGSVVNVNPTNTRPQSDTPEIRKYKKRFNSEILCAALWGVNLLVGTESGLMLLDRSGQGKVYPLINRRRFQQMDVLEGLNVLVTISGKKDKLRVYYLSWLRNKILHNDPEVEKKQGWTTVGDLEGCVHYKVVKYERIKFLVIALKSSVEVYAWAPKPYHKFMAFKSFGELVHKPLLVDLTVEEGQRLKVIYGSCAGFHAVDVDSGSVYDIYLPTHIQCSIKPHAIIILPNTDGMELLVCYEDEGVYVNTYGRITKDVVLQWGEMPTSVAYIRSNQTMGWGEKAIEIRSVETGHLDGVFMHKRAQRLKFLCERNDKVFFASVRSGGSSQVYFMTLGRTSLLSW
Dual specificity mitogen-activated protein kinase kinase 1 (Homo sapiens), sequence (Q02750 whole entry): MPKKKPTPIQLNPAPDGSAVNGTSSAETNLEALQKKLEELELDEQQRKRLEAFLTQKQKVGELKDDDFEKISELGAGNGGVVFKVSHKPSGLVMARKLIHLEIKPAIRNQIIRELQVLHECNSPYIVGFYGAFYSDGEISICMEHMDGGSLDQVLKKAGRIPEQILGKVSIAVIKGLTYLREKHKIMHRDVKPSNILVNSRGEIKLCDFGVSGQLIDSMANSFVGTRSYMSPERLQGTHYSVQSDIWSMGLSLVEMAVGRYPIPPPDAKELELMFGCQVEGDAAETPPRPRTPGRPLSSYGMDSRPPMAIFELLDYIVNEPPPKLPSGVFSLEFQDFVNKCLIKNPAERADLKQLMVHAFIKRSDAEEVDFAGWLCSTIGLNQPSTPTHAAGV

CN(C)C(=O)c1ccc(N2CCCN(c3ccnc4sc(C(N)=O)c(N)c34)CC2)cc1
Activity [1]: 84% and 79% | Activity [2]: 75% and 100% | Activity [3]: 94% and 96% | Activity [4]: 67% and 84% | Activity [5]: 96% and 100% | Activity [6]: 100% and 99% | Activity [7]: 31% and 34% | Activity [8]: 100% and 93% | Activity [9]: 93% and 83% | Activity [10]: 100% and 97% | Activity [11]: 95% and 89% | Activity [12]: 94% and 100% | Activity [13]: 93% and 99% | Activity [14]: 77% and 67% | Activity [15]: 94% and 83% | Activity [16]: 99% and 100% | Activity [17]: 80% and 95% | Activity [18]: 93% and 86% | Activity [19]: 89% and 97% | Activity [20]: 87% and 93% | Activity [21]: 100% and 97% | Activity [22]: 100% | Activity [23]: 91% and 98% | Activity [24]: 93% and 89% | Activity [25]: 92% and 91% | Activity [26]: 100% and 93% | Activity [27]: 85% and 91% | Activity [28]: 97% and 100% | Activity [29]: 100% and 80% | Activity [30]: 100% | Activity [31]: 84% and 69%
